Key:
[1] = biological target: T1, rat TRPV1 (Rattus norvegicus, UniProt O35433); assay: fluo-4 Ca2+ assay selectivity, HEK cells expressing rat TRPV1; assay type: cell-based; conditions: concentrations up to 50 μM
T1 construct: expressed in transfected cells; host or cells: HEK293
Excerpt: (§1) KU-19-19 (DSMZ no. ACC 395), CAL-29 (DSMZ no. ACC 515), 647-V (DSMZ no. ACC 414), RT-4 (DSMZ no. ACC 412), and RT-112 (DSMZ no. ACC 418) bladder cancer cell lines were obtained from the Leibniz Institute DSMZ (German Collection of Microorganisms and Cell Cultures). Human TRPV3 (NM_145068, purchased from OriGene) and mouse TRPV3 (NM_001371006), rat TRPV1, mouse TRPV2, mouse TRPV4, human TRPM2, human TRPM8, and human TRPA1 were stably transfected in HEK293 cells as described before.[27] […]
(§2) All fluorometric Ca^2+ assays were performed in HBS buffer at room temperature. […] For the primary compound screening and the generation of concentration-response analyses, a robotic liquid handling station (Freedom Evo 150; Tecan) with a built-in custom-made fluorescence plate imager was used. […] Fluorescence was excited using a 470-nm light-emitting diode, and emitted light was imaged through a 515-nm–long pass filter with a cooled Zyla 5.5 camera (Andor). Fluorescence was recorded and processed under the control of the μ-Manager 2.0 gamma software (https://micro-manager.org.[28]). After recording baseline fluorescence, compounds were dispensed into the wells via the liquid handling device. […] For further analysis, fluorescence signals were calculated for each well, corrected for background intensities and normalized to the initial signals. […]

[2] = biological target: T2, human TRPV3 (Homo sapiens, UniProt Q8NET8); assay: fluo-4 fluorometric Ca2+ assay, concentration-response, HEK cells expressing human TRPV3; assay type: cell-based; conditions: HEK cells expressing human TRPV3, fluo-4, room temperature, mean ± SD back-transformed from log space, n=5; read-out: EC50 for human TRPV3 activation
T2 construct: host or cells: HEK293
T2 sequence (Q8NET8 1-790): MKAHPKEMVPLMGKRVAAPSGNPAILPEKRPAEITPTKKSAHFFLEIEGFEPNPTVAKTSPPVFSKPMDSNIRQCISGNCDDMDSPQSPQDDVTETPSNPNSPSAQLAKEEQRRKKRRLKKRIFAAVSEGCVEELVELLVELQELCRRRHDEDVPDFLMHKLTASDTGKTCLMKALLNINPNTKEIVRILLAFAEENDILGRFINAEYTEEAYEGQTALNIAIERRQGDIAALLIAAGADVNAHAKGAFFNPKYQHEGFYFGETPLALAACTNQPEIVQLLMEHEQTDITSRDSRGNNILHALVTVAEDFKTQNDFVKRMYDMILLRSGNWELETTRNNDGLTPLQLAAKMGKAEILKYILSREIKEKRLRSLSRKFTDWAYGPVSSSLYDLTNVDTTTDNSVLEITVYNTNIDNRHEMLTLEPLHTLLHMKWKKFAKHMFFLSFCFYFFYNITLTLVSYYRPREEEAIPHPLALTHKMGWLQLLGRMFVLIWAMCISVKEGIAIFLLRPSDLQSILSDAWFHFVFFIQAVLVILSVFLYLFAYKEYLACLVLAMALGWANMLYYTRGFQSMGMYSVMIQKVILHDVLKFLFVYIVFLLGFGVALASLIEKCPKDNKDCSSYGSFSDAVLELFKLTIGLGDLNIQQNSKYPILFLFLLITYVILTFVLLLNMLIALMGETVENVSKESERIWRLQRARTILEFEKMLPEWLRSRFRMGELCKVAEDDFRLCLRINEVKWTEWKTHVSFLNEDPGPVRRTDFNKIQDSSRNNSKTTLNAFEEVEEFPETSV
Excerpt: as §1, §2

T1 sequence (O35433 whole entry): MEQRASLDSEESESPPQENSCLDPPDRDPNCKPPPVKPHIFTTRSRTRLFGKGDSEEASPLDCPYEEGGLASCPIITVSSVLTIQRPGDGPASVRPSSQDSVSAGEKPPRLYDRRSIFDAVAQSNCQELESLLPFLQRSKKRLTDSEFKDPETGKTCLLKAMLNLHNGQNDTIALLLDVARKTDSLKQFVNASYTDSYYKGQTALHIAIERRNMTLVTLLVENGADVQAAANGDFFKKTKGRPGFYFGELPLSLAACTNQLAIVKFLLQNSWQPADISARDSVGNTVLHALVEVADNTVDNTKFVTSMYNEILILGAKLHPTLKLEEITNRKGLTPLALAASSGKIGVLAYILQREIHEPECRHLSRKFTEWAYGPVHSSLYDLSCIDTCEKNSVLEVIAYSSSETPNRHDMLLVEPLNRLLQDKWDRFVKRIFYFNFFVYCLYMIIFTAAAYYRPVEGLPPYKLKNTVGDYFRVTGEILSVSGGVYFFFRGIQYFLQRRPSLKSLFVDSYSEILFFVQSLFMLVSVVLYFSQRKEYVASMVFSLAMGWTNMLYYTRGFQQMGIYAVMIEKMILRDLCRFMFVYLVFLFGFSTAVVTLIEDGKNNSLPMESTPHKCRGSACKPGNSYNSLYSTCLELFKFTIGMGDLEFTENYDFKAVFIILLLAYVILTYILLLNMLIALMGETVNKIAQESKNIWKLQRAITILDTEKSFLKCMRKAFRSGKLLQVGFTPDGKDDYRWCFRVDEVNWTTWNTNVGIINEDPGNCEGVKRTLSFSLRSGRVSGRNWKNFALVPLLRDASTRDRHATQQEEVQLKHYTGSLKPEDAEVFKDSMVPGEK

COC(=O)C12CN(Cc3ccccc3)CC1(C(=O)OC)CN(Cc1ccccc1)C2 (centres unmarked) [AV3-1]
effect on TRPV1 [1]: only a minor activation | EC50 [2]: 7.2 ± 1.4 µM

Source: publication PMC12881674, “Activation of TRPV3 channels in bladder cancer cells stimulates ATP release” (Molecular Pharmacology, 2025)
